Measured values as given in US20220104493A1, “HERBICIDAL COMPOUNDS” (SYNGENTA CROP PROTECTION AG, priority 2019, published 2022).
Counter-ions that a name gives are not always drawn.

Experiments:
Assay in all cases: Post-emergence efficacy, Method A
Type in all cases: in vivo
[1] = system: Digitaria sanguinalis (DIGSA); details: 500 g/Ha, 100=total damage to plant, 0=no damage, evaluated after 7 and 14 days, read-out: Control of weed species after post-emergence application, DIGSA
[2] = system: Chenopodium album (CHEAL); details: 500 g/Ha, 100=total damage to plant, 0=no damage, evaluated after 7 and 14 days, read-out: Control of weed species after post-emergence application, CHEAL
Setaria faberi (SETFA) = details: 500 g/Ha, 100=total damage to plant, 0=no damage, evaluated after 7 and 14 days, read-out: Control of weed species after post-emergence application, SETFA
Eleusine indica (ELEIN) = details: 500 g/Ha, 100=total damage to plant, 0=no damage, evaluated after 7 and 14 days, read-out: Control of weed species after post-emergence application, ELEIN
[3] = system: Euphorbia heterophylla (EPHHL); details: 500 g/Ha, 100=total damage to plant, 0=no damage, evaluated after 7 and 14 days, read-out: Control of weed species after post-emergence application, EPHHL
[4] = system: Ipomoea hederacea (IPOHE); details: 500 g/Ha, 100=total damage to plant, 0=no damage, evaluated after 7 and 14 days, read-out: Control of weed species after post-emergence application, IPOHE
[5] = system: Amaranthus palmeri (AMAPA); details: 500 g/Ha, 100=total damage to plant, 0=no damage, evaluated after 7 and 14 days, read-out: Control of weed species after post-emergence application, AMAPA
[6] = system: Echinochloa crus-galli (ECHCG); details: 500 g/Ha, 100=total damage to plant, 0=no damage, evaluated after 7 and 14 days, read-out: Control of weed species after post-emergence application, ECHCG
Lolium perenne (LOLPE) = details: 500 g/Ha, 100=total damage to plant, 0=no damage, evaluated after 7 and 14 days, read-out: Control of weed species after post-emergence application, LOLPE

In the case of O=S(=O)([O-])OCC[n+]1ccc(-c2csnn2)cc1 [Compound A65, 2-[4-(thiadiazol-4-yl)pyridin-1-ium-1-yl]ethyl sulfate], the pest or weed control at 500 g/ha [1] is reported as 30%, the pest or weed control at 500 g/ha [2] is reported as 20% and the pest or weed control at 500 g/ha (Setaria faberi (SETFA)) is reported as 10%. The pest or weed control at 500 g/ha (Eleusine indica (ELEIN)) was 20%, the pest or weed control at 500 g/ha [3] was 20% and the pest or weed control at 500 g/ha [4] was 20%. For the same compound, the pest or weed control at 500 g/ha [5] was 30%, the pest or weed control at 500 g/ha [6] was 20% and the pest or weed control at 500 g/ha (Lolium perenne (LOLPE)) was 10%.

Compound OCC[n+]1ccc(-c2nnc(-c3ccccc3)o2)cc1 [Compound A69, 2-[4-(5-phenyl-1,3,4-oxadiazol-2-yl)pyridin-1-ium-1-yl]ethanol 2,2,2-trifluoroacetate] has a pest or weed control at 500 g/ha [1] of 10%, a pest or weed control at 500 g/ha [2] of 30% and a pest or weed control at 500 g/ha (Setaria faberi (SETFA)) of 10%. It also gave a pest or weed control at 500 g/ha (Eleusine indica (ELEIN)) of 30%, a pest or weed control at 500 g/ha [3] of 20% and a pest or weed control at 500 g/ha [4] of 20%. For the same compound, the pest or weed control at 500 g/ha [5] was 20%, the pest or weed control at 500 g/ha [6] was 20% and the pest or weed control at 500 g/ha (Lolium perenne (LOLPE)) was 10%.

Cc1nc(-c2cc[n+](CCCS(=O)(=O)[O-])cc2)no1 [Compound A71] was tested, and the pest or weed control at 500 g/ha [1] was 30%, the pest or weed control at 500 g/ha [2] was 50% and the pest or weed control at 500 g/ha (Setaria faberi (SETFA)) was 10%. It also gave a pest or weed control at 500 g/ha (Eleusine indica (ELEIN)) of 20%, a pest or weed control at 500 g/ha [3] of 40% and a pest or weed control at 500 g/ha [4] of 30%. It also gave a pest or weed control at 500 g/ha [5] of 20%, a pest or weed control at 500 g/ha [6] of 20% and a pest or weed control at 500 g/ha (Lolium perenne (LOLPE)) of 0%.

Cn1nccc1-c1cc[n+](CCOS(=O)(=O)[O-])cc1 [Compound A74] gave a pest or weed control at 500 g/ha [1] of 30%, a pest or weed control at 500 g/ha [2] of 40% and a pest or weed control at 500 g/ha (Setaria faberi (SETFA)) of 20%. It also gave a pest or weed control at 500 g/ha (Eleusine indica (ELEIN)) of 20%, a pest or weed control at 500 g/ha [3] of 20% and a pest or weed control at 500 g/ha [4] of 10%. For the same compound, the pest or weed control at 500 g/ha [5] was 10%, the pest or weed control at 500 g/ha [6] was 20% and the pest or weed control at 500 g/ha (Lolium perenne (LOLPE)) was 10%.

O=C(O)CC[n+]1ccc(-c2nc(C(F)(F)F)ns2)c(Br)c1 [Compound A79, 3-[3-bromo-4-[3-(trifluoromethyl)-1,2,4-thiadiazol-5-yl]pyridin-1-ium-1-yl]propanoic acid acetate] showed a pest or weed control at 500 g/ha [1] of 80%, a pest or weed control at 500 g/ha [2] of 40% and a pest or weed control at 500 g/ha (Setaria faberi (SETFA)) of 70%. The pest or weed control at 500 g/ha (Eleusine indica (ELEIN)) was 90%, the pest or weed control at 500 g/ha [3] was 60% and the pest or weed control at 500 g/ha [4] was 40%. The pest or weed control at 500 g/ha [5] was 90%, the pest or weed control at 500 g/ha [6] was 80% and the pest or weed control at 500 g/ha (Lolium perenne (LOLPE)) was 30%.

O=C(O)C[n+]1ccc(-c2ccsn2)cc1 [Compound A81] was tested, and the pest or weed control at 500 g/ha [1] was 10%, the pest or weed control at 500 g/ha [2] was 40% and the pest or weed control at 500 g/ha (Setaria faberi (SETFA)) was 10%. It also gave a pest or weed control at 500 g/ha (Eleusine indica (ELEIN)) of 40%, a pest or weed control at 500 g/ha [3] of 20% and a pest or weed control at 500 g/ha [4] of 0%. For the same compound, the pest or weed control at 500 g/ha [5] was 70%, the pest or weed control at 500 g/ha [6] was 10% and the pest or weed control at 500 g/ha (Lolium perenne (LOLPE)) was 0%.

In the case of O=C(O)C[n+]1ccc(-c2ncsn2)cc1 [Compound A83], the pest or weed control at 500 g/ha [1] is reported as 20%, the pest or weed control at 500 g/ha [2] is reported as 30% and the pest or weed control at 500 g/ha (Setaria faberi (SETFA)) is reported as 10%. The pest or weed control at 500 g/ha (Eleusine indica (ELEIN)) was 10%, the pest or weed control at 500 g/ha [3] was 50% and the pest or weed control at 500 g/ha [4] was 10%. For the same compound, the pest or weed control at 500 g/ha [5] was 20%, the pest or weed control at 500 g/ha [6] was 0% and the pest or weed control at 500 g/ha (Lolium perenne (LOLPE)) was 10%.

Compound O=S(=O)([O-])C[n+]1ccc(-c2nccs2)cc1 [Compound A84] has a pest or weed control at 500 g/ha [1] of 10%, a pest or weed control at 500 g/ha [2] of 60% and a pest or weed control at 500 g/ha (Setaria faberi (SETFA)) of 10%. The pest or weed control at 500 g/ha (Eleusine indica (ELEIN)) was 50%, the pest or weed control at 500 g/ha [3] was 50% and the pest or weed control at 500 g/ha [4] was 10%. The pest or weed control at 500 g/ha [5] was 70%, the pest or weed control at 500 g/ha [6] was 30% and the pest or weed control at 500 g/ha (Lolium perenne (LOLPE)) was 10%.

For O=S(=O)([O-])C[n+]1ccc(-c2nc(C(F)(F)F)ns2)cc1 [Compound A85], the pest or weed control at 500 g/ha [1] was 100%, the pest or weed control at 500 g/ha [2] was 90% and the pest or weed control at 500 g/ha (Setaria faberi (SETFA)) was 100%. It also gave a pest or weed control at 500 g/ha (Eleusine indica (ELEIN)) of 100%, a pest or weed control at 500 g/ha [3] of 100% and a pest or weed control at 500 g/ha [4] of 100%. It also gave a pest or weed control at 500 g/ha [5] of 100%, a pest or weed control at 500 g/ha [6] of 100% and a pest or weed control at 500 g/ha (Lolium perenne (LOLPE)) of 90%.
